Literature values as cited in patent EP1110914A2, “Water treatment method and apparatus” (ROHM AND HAAS COMPANY, priority 1999, dated 2001).
Like-named read-outs stand apart in the source and are kept apart here.

Details: in water

CO2 Conc @ 15° C (pressure 101 kPa (1 bar)): 2,523 ppm | CO2 Conc @ 15° C (pressure 507 kPa (5 bar)): 12,613 ppm | CO2 Conc @ 15° C (pressure 931 kPa (9.2 bar)): 23,207 ppm | CO2 Conc @ 20° C (pressure 101 kPa (1 bar)): 2,174 ppm | CO2 Conc @ 20° C (pressure 507 kPa (5 bar)): 10,868 ppm | CO2 Conc @ 20° C (pressure 931 kPa (9.2 bar)): 19,996 ppm | CO2 Conc @ 25° C (pressure 101 kPa (1 bar)): 1,876 ppm | CO2 Conc @ 25° C (pressure 507 kPa (5 bar)): 9,381 ppm | CO2 Conc @ 25° C (pressure 931 kPa (9.2 bar)): 17,261 ppm
Structure (SMILES): O=C=O [CO2, carbon dioxide]
